Assay: excess molar enthalpy (molar enthalpy of mixing); xn = mol fraction of the nth substance listed
Settings: Liquid, Flow calorimetry

CCO [ethanol] + O
excess molar enthalpy [kcal/mol]
Settings	423.2 K	523.2 K
5000 kPa, x2 = 0.1473	0.0939	–
5000 kPa, x2 = 0.2673	0.159	–
5000 kPa, x2 = 0.4508	0.215	–
5000 kPa, x2 = 0.5845	0.218	–
5000 kPa, x2 = 0.6864	0.196	–
5000 kPa, x2 = 0.7665	0.164	–
5000 kPa, x2 = 0.8312	0.128	–
5000 kPa, x2 = 0.8845	0.0917	–
5000 kPa, x2 = 0.9292	0.0569	–
5000 kPa, x2 = 0.9673	0.0255	–
15000 kPa, x2 = 0.1466	0.0918	0.188
15000 kPa, x2 = 0.2662	0.156	0.304
15000 kPa, x2 = 0.4493	0.215	0.401
15000 kPa, x2 = 0.5831	0.218	0.41
15000 kPa, x2 = 0.6851	0.197	0.373
15000 kPa, x2 = 0.7655	0.166	0.322
15000 kPa, x2 = 0.8304	0.13	0.261
15000 kPa, x2 = 0.8839	0.0937	0.198
15000 kPa, x2 = 0.9289	0.0584	0.131
15000 kPa, x2 = 0.9671	0.0263	0.0634

— the NIST ThermoML archive (doi:10.1016/j.jct.2014.05.020)
